Reference: ChEMBL document CHEMBL1909294, “Translating clinical findings into knowledge in drug safety evaluation--drug induced liver injury prediction system (DILIps)” (PLoS Comput Biol, 2011)

Key:
Hepatotoxicity [1] = system: Hepatotoxicity;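 as to HepSE cholelithiasis: hepatic side effect score for cholelithiasis, drawn from the DILIps training data for predicting drug-induced liver injury; call rule not given here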;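 as to HepSE cirrhosis: cirrhosis hepatic side effect score taken from the DILIps (drug-induced liver injury prediction) training set; call rule not given here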;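 as to HepSE elevated liver function tests: hepatic side effect score for raised liver function tests, as recorded in the DILIps training set used for predicting drug-induced liver injury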; as to HepSE hepatic failure: call rule not given here;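 as to HepSE hepatic necrosis: score of hepatic side effects for hepatic necrosis, drawn from the training data of DILIps, a prediction system for drug-induced liver injury; call rule not given here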;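 as to HepSE hepatomegaly: hepatic side effect score for hepatomegaly, taken from the training set of the DILIps drug-induced liver injury prediction system; call rule not given here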;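 as to HepSE jaundice: Jaundice-related hepatic side-effect score drawn from the training data of the DILIps (drug-induced liver injury prediction system); call rule not given here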
Hepatotoxicity [2] = system: Hepatotoxicity; remark: listed apart in the source;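 as to HepSE cholelithiasis: hepatic side effect score for cholelithiasis, drawn from the DILIps training data for predicting drug-induced liver injury; call rule not given here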;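 as to HepSE cirrhosis: cirrhosis hepatic side effect score taken from the DILIps (drug-induced liver injury prediction) training set; call rule not given here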;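 as to HepSE elevated liver function tests: hepatic side effect score for raised liver function tests, as recorded in the DILIps training set used for predicting drug-induced liver injury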; as to HepSE hepatic failure: call rule not given here;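 as to HepSE hepatic necrosis: score of hepatic side effects for hepatic necrosis, drawn from the training data of DILIps, a prediction system for drug-induced liver injury; call rule not given here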;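 as to HepSE hepatomegaly: hepatic side effect score for hepatomegaly, taken from the training set of the DILIps drug-induced liver injury prediction system; call rule not given here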
Hepatotoxicity [3] = system: Hepatotoxicity; remark: listed apart in the source;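 as to HepSE cholelithiasis: hepatic side effect score for cholelithiasis, drawn from the DILIps training data for predicting drug-induced liver injury; call rule not given here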;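 as to HepSE cirrhosis: cirrhosis hepatic side effect score taken from the DILIps (drug-induced liver injury prediction) training set; call rule not given here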;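 as to HepSE elevated liver function tests: hepatic side effect score for raised liver function tests, as recorded in the DILIps training set used for predicting drug-induced liver injury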; as to HepSE hepatic failure: call rule not given here;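 as to HepSE hepatic necrosis: score of hepatic side effects for hepatic necrosis, drawn from the training data of DILIps, a prediction system for drug-induced liver injury; call rule not given here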;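 as to HepSE hepatomegaly: hepatic side effect score for hepatomegaly, taken from the training set of the DILIps drug-induced liver injury prediction system; call rule not given here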
Hepatotoxicity [4] = system: Hepatotoxicity; remark: listed apart in the source;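 as to HepSE cholelithiasis: hepatic side effect score for cholelithiasis, drawn from the DILIps training data for predicting drug-induced liver injury; call rule not given here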;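 as to HepSE cirrhosis: cirrhosis hepatic side effect score taken from the DILIps (drug-induced liver injury prediction) training set; call rule not given here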;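 as to HepSE elevated liver function tests: hepatic side effect score for raised liver function tests, as recorded in the DILIps training set used for predicting drug-induced liver injury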; as to HepSE hepatic failure: call rule not given here;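 as to HepSE hepatic necrosis: score of hepatic side effects for hepatic necrosis, drawn from the training data of DILIps, a prediction system for drug-induced liver injury; call rule not given here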;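 as to HepSE hepatomegaly: hepatic side effect score for hepatomegaly, taken from the training set of the DILIps drug-induced liver injury prediction system; call rule not given here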
Hepatotoxicity [5] = system: Hepatotoxicity; remark: listed apart in the source; as to HepSE hepatic failure: call rule not given here
Hepatotoxicity [6] = system: Hepatotoxicity; remark: listed apart in the source; as to HepSE hepatic failure: call rule not given here
Hepatotoxicity [7] = system: Hepatotoxicity; remark: listed apart in the source
Hepatotoxicity [8] = system: Hepatotoxicity; remark: listed apart in the source
Hepatotoxicity [9] = system: Hepatotoxicity; remark: listed apart in the source
Hepatotoxicity [10] = system: Hepatotoxicity; remark: listed apart in the source
Hepatotoxicity [11] = system: Hepatotoxicity; remark: listed apart in the source
Hepatotoxicity [12] = system: Hepatotoxicity; remark: listed apart in the source
Hepatotoxicity [13] = system: Hepatotoxicity; remark: listed apart in the source
Hepatotoxicity [14] = system: Hepatotoxicity; remark: listed apart in the source

Row | SMILES | HepSE_hepatomegaly (Hepatotoxicity [1]) | HepSE_cholelithiasis (Hepatotoxicity [2]) | HepSE_cirrhosis (Hepatotoxicity [3]) | HepSE_hepatic necrosis (Hepatotoxicity [4]) | HepSE_hepatic failure (Hepatotoxicity [5]) | HepSE_elevated liver function tests (Hepatotoxicity [6]) | HepSE_jaundice (Hepatotoxicity [7]) | HepSE_liver disease (Hepatotoxicity [8]) | HepSE_bilirubinemia (Hepatotoxicity [9]) | HepSE_cholecystitis (Hepatotoxicity [10]) | HepSE_hepatitis (Hepatotoxicity [11]) | HepSE_Combined Scores (Hepatotoxicity [12]) | HepSE_liver fatty (Hepatotoxicity [13]) | HepSE_liver function tests abnormal (Hepatotoxicity [14]) | other results
1 | O=C1C(CC[S+]([O-])c2ccccc2)C(=O)N(c2ccccc2)N1c1ccccc1 (configuration not stated) [SULFINPYRAZONE] | 0 | 0 | 0 | 0 | 0 | 0 | 0 | 0 | 0 | 0 | 0 | 0 | 0 | 0 | –
2 | Nc1nc2c(c(=O)[nH]1)N(C=O)C(CNc1ccc(C(=O)N[C@@H](CCC(=O)O)C(=O)O)cc1)CN2 (some centres not stated) [LEUCOVORIN] | 0 | 0 | 0 | 0 | 0 | 0 | 0 | 0 | 0 | 0 | 0 | 0 | 0 | 0 | –
3 | Cl[C@H]1[C@H](Cl)[C@@H](Cl)[C@@H](Cl)[C@H](Cl)[C@H]1Cl [LINDANE] | – | – | – | – | – | – | – | – | – | – | – | – | – | – | HepSE_hepatomegaly (Hepatotoxicity [1]; Liver): 0; HepSE_cholelithiasis (Hepatotoxicity [2]; Liver): 0; HepSE_cirrhosis (Hepatotoxicity [3]; Liver): 0; HepSE_hepatic necrosis (Hepatotoxicity [4]; Liver): 0; HepSE_hepatic failure (Hepatotoxicity [5]; Liver): 0; HepSE_elevated liver function tests (Hepatotoxicity [6]; Liver): 0; HepSE_jaundice (Hepatotoxicity [7]; Liver): 0; HepSE_liver disease (Hepatotoxicity [8]; Liver): 0; HepSE_bilirubinemia (Hepatotoxicity [9]; Liver): 0; HepSE_cholecystitis (Hepatotoxicity [10]; Liver): 0; HepSE_hepatitis (Hepatotoxicity [11]; Liver): 0; HepSE_Combined Scores (Hepatotoxicity [12]; Liver): 0; HepSE_liver fatty (Hepatotoxicity [13]; Liver): 0; HepSE_liver function tests abnormal (Hepatotoxicity [14]; Liver): 0
4 | CC[C@H]1OC(=O)[C@H](C)[C@@H](O[C@H]2C[C@@](C)(OC)[C@@H](O)[C@H](C)O2)[C@H](C)[C@@H](O[C@@H]2O[C@H](C)C[C@H](N(C)C)[C@H]2O)[C@](C)(O)C[C@@H](C)C(=O)[C@H](C)[C@@H](O)[C@]1(C)O [ERYTHROMYCIN] | 0 | 0 | 0 | 0 | 0 | 0 | 0 | 0 | 0 | 0 | 1 | 1 | 0 | 0 | –
5 | CCN(C)C(=O)Oc1cccc([C@H](C)N(C)C)c1 [RIVASTIGMINE] | 0 | 1 | 0 | 0 | 0 | 0 | 0 | 0 | 0 | 1 | 0 | 2 | 0 | 0 | –
6 | CN(CCOc1ccc(CC2SC(=O)NC2=O)cc1)c1ccccn1 (configuration not stated) [ROSIGLITAZONE] | 0 | 0 | 0 | 0 | 1 | 0 | 0 | 0 | 1 | 0 | 1 | 3 | 0 | 0 | –
7 | CC#CCC(C)[C@H](O)/C=C/[C@@H]1[C@H]2C/C(=C/CCCC(=O)O)C[C@H]2C[C@H]1O (some centres not stated) [ILOPROST] | 0 | 0 | 0 | 0 | 0 | 0 | 0 | 0 | 0 | 0 | 0 | 0 | 0 | 0 | –
8 | C[C@@H](CN1CC(=O)NC(=O)C1)N1CC(=O)NC(=O)C1 [DEXRAZOXANE] | 0 | 0 | 0 | 0 | 0 | 0 | 0 | 0 | 0 | 0 | 0 | 0 | 0 | 0 | –
9 | CCc1cc(C(N)=S)ccn1 [ETHIONAMIDE] | – | – | – | – | – | – | – | – | – | – | – | – | – | – | HepSE_hepatomegaly (Hepatotoxicity [1]; Liver): 0; HepSE_cholelithiasis (Hepatotoxicity [2]; Liver): 0; HepSE_cirrhosis (Hepatotoxicity [3]; Liver): 0; HepSE_hepatic necrosis (Hepatotoxicity [4]; Liver): 0; HepSE_hepatic failure (Hepatotoxicity [5]; Liver): 0; HepSE_elevated liver function tests (Hepatotoxicity [6]; Liver): 0; HepSE_jaundice (Hepatotoxicity [7]; Liver): 1; HepSE_liver disease (Hepatotoxicity [8]; Liver): 0; HepSE_bilirubinemia (Hepatotoxicity [9]; Liver): 0; HepSE_cholecystitis (Hepatotoxicity [10]; Liver): 0; HepSE_hepatitis (Hepatotoxicity [11]; Liver): 1; HepSE_Combined Scores (Hepatotoxicity [12]; Liver): 2; HepSE_liver fatty (Hepatotoxicity [13]; Liver): 0; HepSE_liver function tests abnormal (Hepatotoxicity [14]; Liver): 0
10 | C[C@@H](O)[C@H]1C(=O)N2C(C(=O)O)=C(S[C@@H]3CN[C@H](C(=O)Nc4cccc(C(=O)O)c4)C3)[C@H](C)[C@H]12 | 0 | 1 | 0 | 0 | 0 | 0 | 1 | 1 | 0 | 1 | 0 | 4 | 0 | 0 | –
11 | CCC[C@@H]1C[C@@H](C(=O)N[C@@H]([C@H]2O[C@H](SC)[C@H](O)[C@@H](O)[C@H]2O)[C@H](C)Cl)N(C)C1 [CLINDAMYCIN] | 0 | 0 | 0 | 0 | 0 | 0 | 1 | 0 | 0 | 0 | 0 | 1 | 0 | 0 | –
12 | CCCOc1ccc(C(=O)OCCN(CC)CC)cc1N [PROPARACAINE] | 0 | 0 | 0 | 0 | 0 | 0 | 0 | 0 | 0 | 0 | 0 | 0 | 0 | 0 | –
13 | CC(=O)O.NCc1ccc(S(N)(=O)=O)cc1 [MAFENIDE ACETATE] | 0 | 0 | 0 | 0 | 0 | 0 | 0 | 0 | 0 | 0 | 0 | 0 | 0 | 0 | –
